Reference: PMC4467156, “A new chemical inhibitor of angiogenesis and tumorigenesis that targets the VEGF signaling pathway upstream of Ras” (Oncotarget, 2015)

Assays:
[1] = molecular target: Raf; assay: In vitro kinase assay Raf; format: biochemical; settings: concentrations up to 50 μM
Procedure: (§1) We first wondered whether COB223 required to be internalized to exert its biological effect. For this, we synthesized a covalent complex between BSA and COB223 and purified it. […] In vitro kinase assays were performed with a panel of purified protein-kinases involved in mitogenic signaling, including VEGFR2, FGFR1, FGFR2, PDGFRß, Met, Raf, MEK1, ERK1, ERK2, PKCα, PKCβI, PKCβII, PKCζ as indicated in Table 2. […] We then analyzed the effect of COB223 on VEGF-induced phosphorylations of VEGFR2, MEK and ERK1/2 (Figure 9). […] (Figure 9A, 9B). […] It was also specific of the p42/p44 MAP kinase pathway as activation of p38 MAP kinase phosphorylation in HUVEC cells by VEGF or serum was unaffected by COB223 (data not shown). The activation of src phosphorylation by VEGF in HUVECs was also unaffected by COB223 (data not shown).

[2] = molecular target: PDGFRß (Homo sapiens, UniProt P09619); assay: In vitro kinase assay PDGFRß; format: biochemical; settings: concentrations up to 50 μM
Procedure: as §1

[3] = tested on: PLCγ phosphorylation; assay: Western blot, PLCγ phosphorylation in HUVEC; format: cell-based, human; settings: 10 ng/mL VEGF-A 15 min, 25 μM COB223
Procedure: Figure 11 Effect of COB223 on mitogenic or oncogenic activation of the Ras /MEK/ERK signaling pathway (A) Serum-starved HUVEC cells were incubated for 15 min in the presence of 10 ng/mL VEGF-A and in the absence or the presence of 25 μM COB223. The phosphorylations of PLCγ on tyrosine 783, of Raf on serine 338 or on serine 259 and of ERK1/2 were then analyzed by Western blot analysis of the cell lysates as described in Material and Methods. Western blots for total PLCγ, Raf and ERK1/2 were used as loading controls. (B) MCF10A cells overexpressing an oncogenic version of Ras (MCF10A-RasG12V) were treated for the indicated periods of time by 25 μM COB223. Total ERK1/2 and phospho-ERK1/2 were then visualized by Western blotting of the cell extracts. Non-treated regular MCF10A cells were analyzed as a control (first lane). (C) CCL-39 fibroblasts expressing a constitutively active Raf in an estrogen-responsive manner were stimulated for 3 h with estradiol and treated for 15 or 30 min with 25 μM COB223. Total ERK1/2 and phospho-ERK1/2 were then visualized by Western blotting of the cell extracts. Non-treated cells were analyzed as a control (left lanes).
Serum-starved HUVEC cells were incubated for 15 min in the presence of either 10 ng/mL VEGF-A or 20 ng/mL FGF-2 and in the absence or the presence of indicated concentration of COB223. COB223 was incubated 15 min prior to stimulation. […]

[4] = tested on: p38 MAP kinase phosphorylation; assay: p38 MAP kinase phosphorylation in HUVEC; format: cell-based, human; settings: data not shown
[5] = tested on: MEK phosphorylation; assay: Western blot, MEK phosphorylation in HUVEC; format: cell-based, human; settings: 10 ng/mL VEGF-A 15 min, 25 μM COB223
Procedure: Figure 9 Effect of COB223 on growth factor-induced VEGF-R2, MEK and ERK phosphorylations (A) Serum-starved HUVEC cells were incubated for 15 min in the presence of either 10 ng/mL VEGF-A or 20 ng/mL FGF-2 and in the absence or the presence of 25 μM COB223. The phosphorylations of VEGFR2 on tyrosine 1175 or tyrosine 1214, of MEK and ERK1/2 were then analyzed by Western blot analysis of the cell lysates as described in Material and Methods. Western blots for total VEGFR2, MEK and ERK1/2 were used as loading controls. The blots shown in Figure 9A were obtained in one representative experiment. (B) The hybridization signals observed in 5 similar but independent experiments were quantitated and the ratios between phospho-VEGFR2(Y1175) or (Y1214) and VEGFR2 signals were normalized to the value observed in the absence of COB223. (C) The hybridization signals observed in 5 similar but independent experiments were quantitated and the ratios between phospho-ERK1/2 and ERK1/2 and between phospho-MEK and MEK were normalized to the values observed in the absence of COB223. Additional experiments performed with 10% fetal calf serum (FCS) as a mitogen were included in this analysis. * : p < 0.05; ** : p < 0.01
Serum-starved HUVEC cells were incubated for 15 min in the presence of either 10 ng/mL VEGF-A or 20 ng/mL FGF-2 and in the absence or the presence of indicated concentration of COB223. […]

[6] = tested on: HMEC-GFP cells; assay: Scratch wound closure assay, HMEC-GFP; format: cell-based, human; settings: Homo sapiens
From the text: In order to adapt the endothelial scratch wounding assay to the constraints of high throughput screening, we decided to use an endothelial cell line rather than primary cultures for the sake of reproducibility. Since angiogenesis is triggered by capillary endothelial cells, we selected the HMEC-1 cell line which consists of human dermal microvascular endothelial cells stably expressing SV40 […] antigen. We infected this cell line with GFP-encoding retroviral particles and selected one clone (thereafter named HMEC-GFP) that presented a high level of fluorescence and a strong proliferation rate (doubling time in the presence of serum: 22 h). We controlled that GFP expression was stable over at least 50 passages and that these cells still expressed endothelial markers such as VE-cadherin and CD31. In a standard assay, HMEC-GFP cells were grown until confluence in 96-well plates in the presence of serum, scratched with the multi-tip dispenser of the HTS automat, gently rinsed twice to eliminate detached cells and cell debris that could liberate inflammatory and potentially angiogenic cytokines, and incubated for 24 h in the presence of serum and the compounds to be tested. Each well was photographed at time 0 h (after wounding) and 24 h under a motorized epifluorescence microscope and the digitized images were analyzed using Image J to determine the percentage of wound closure (Figure 1A, 1B). Under our standard conditions, the closure rate was 72 ± 4% in the positive controls and 27 ± 4.% in the negative controls.
Confluent cell monolayers were wounded with a plastic pipet tip, washed gently with phosphate buffer saline (PBS) and treated with complete media containing molecules, as indicated. Cells were placed at 37°C into the incubator and photographed at indicated times. Quantitation of closure of the monolayer was performed using the NIH Image J program (http://rsbweb.nih.gov/ij/). Results are expressed as percentage of wound closure at t = 24 h as compared to the initial wound at t = 0 h.

Chain of PDGFRß (P09619 33-1106, species assumed): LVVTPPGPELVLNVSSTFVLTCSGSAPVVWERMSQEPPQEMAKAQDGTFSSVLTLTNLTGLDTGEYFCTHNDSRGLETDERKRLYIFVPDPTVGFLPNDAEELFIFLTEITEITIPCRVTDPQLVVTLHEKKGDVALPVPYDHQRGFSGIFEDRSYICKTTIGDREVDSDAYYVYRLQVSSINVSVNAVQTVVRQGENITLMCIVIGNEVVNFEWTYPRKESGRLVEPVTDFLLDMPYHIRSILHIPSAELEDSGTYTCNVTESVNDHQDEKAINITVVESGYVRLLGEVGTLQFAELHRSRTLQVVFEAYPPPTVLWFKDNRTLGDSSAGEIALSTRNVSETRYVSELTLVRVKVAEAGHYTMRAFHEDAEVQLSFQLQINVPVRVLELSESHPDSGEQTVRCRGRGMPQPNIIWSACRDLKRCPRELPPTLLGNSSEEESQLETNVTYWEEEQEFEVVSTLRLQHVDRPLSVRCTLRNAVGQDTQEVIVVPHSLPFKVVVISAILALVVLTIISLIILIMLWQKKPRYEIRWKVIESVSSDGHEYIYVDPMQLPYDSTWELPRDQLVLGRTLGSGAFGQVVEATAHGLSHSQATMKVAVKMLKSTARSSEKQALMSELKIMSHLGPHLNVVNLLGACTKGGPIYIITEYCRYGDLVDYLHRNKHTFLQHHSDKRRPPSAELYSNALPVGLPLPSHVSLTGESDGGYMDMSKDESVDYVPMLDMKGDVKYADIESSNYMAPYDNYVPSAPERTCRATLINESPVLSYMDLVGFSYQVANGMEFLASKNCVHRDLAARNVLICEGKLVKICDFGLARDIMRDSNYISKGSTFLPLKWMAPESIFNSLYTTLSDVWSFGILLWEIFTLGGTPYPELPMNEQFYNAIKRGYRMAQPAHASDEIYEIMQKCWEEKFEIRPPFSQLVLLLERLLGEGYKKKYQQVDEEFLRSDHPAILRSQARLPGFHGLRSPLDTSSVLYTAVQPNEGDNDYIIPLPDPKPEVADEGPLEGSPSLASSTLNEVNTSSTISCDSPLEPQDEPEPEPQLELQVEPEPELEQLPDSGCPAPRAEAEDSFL

## CN(C)c1cccc2c(S(=O)(=O)NCCCN3CCN(CCCNC(=O)OC(C)(C)C)CC3)cccc12 [COB223, tert-Butyl 3-(4-(3-(5-(dimethylamino)naphthalene-1-sulfonamido)propyl)piperazin-1-yl) propylcarbamate]
[1]
  kinase inhibition: None of them was inhibited
[2]
  kinase inhibition: None of them was inhibited
[3]
  VEGF-induced tyrosine phosphorylation of PLCγ on residue Y783: unaffected
[4]
  activation of p38 MAP kinase phosphorylation by VEGF or serum: unaffected
[5]
  VEGF-induced phosphorylation of MEK: significantly inhibited
[6]; as quoted
  EC50: 5 µM
[6]; wound closure after 24 h, 10% FCS, tested 3.125 μM to 100 μM
  IC50: 5 µM
